This passage reports IC50 results from patent publication US20070270475A1, “4-Methoxy-Pyrrolidine-2-Carboxylic Acid Compounds and Derivatives Thereof as Hepatitis C Virus Inhibitors” (priority 2004, published 2007).

Molecules are shown by their SMILES. Bounds are passed on as bounds.

Assay [1] deals with Huh-7 HCV replicon cells (sub-line 5-15; genotype 1b). Description: Replicon ELISA cell based assay, genotype 1b (sub-line 5-15). More on the design: species or system HCV genotype 1b. Conditions: Hepatitis C virus, Huh-7 genotype 1b replicon sub-line 5-15, 72 hours. The procedure: (§1) Replicon ELISA Cell Based Assay
(§2) 100 μL of medium containing 10% FCS were added to each well of clear, flat-bottomed 96 well microplates, excepting wells in the top row. Test compound was diluted in assay medium to twice the final required starting concentration from a 40 mM stock solution in DMSO. 200 μL of the starting dilution were introduced into two wells each in the top row and doubling dilutions made down the plate by the sequential transfer of 100 μL aliquots with thorough mixing in the wells; the final 100 μL were discarded. The two bottom rows were not used for compound dilutions. Huh-7 HCV replicon cell monolayers nearing confluency were stripped from growth flasks with versene-trypsin solution and the cells were resuspended in assay medium at either 2×10^5 cells/mL (sub-line 5-15; genotype 1b; Lohmann, V., Korner, F., Koch, J-O., Herian, U., Thielmann, L. and Bartenschlager, R., 1999, Science, 285, pp 110-113) or at 3×10^5 cells/mL (genotype 1a; Gu, B., Gates, A.T., Isken, O., Behrens, S. E. and Sarisky, R. T., J. Virol., 2003, 77, 5352-5359). 100 μL of cell suspension were added to all wells and the plates incubated at 37° C. for 72 hours in a 5% CO2 atmosphere.
(§3) Following incubation, the assay medium was aspirated from the plates. The cell sheets were washed by gentle immersion in phosphate buffered saline (PBS), which was then aspirated off, and fixed with acetone:methanol (1:1) for 5 minutes. Following a further wash with PBS, 100 μL of ELISA diluent (PBS+0.05% v/v Tween 20+2% w/v skimmed milk powder) were added to all wells and the plates incubated at 37° C. for 30 minutes on an orbital platform. The diluent was removed and each well then received 50 μL of a 1/200 dilution of anti-HCV specific, murine, monoclonal antibody (either Virostat #1872 or #1877), except for wells in one of the compound-free control rows which received diluent alone to act as negative controls. The plates were incubated at 37° C. for 2 hours and washed 3 times with PBS/0.05% Tween 20, then 50 μL of horseradish peroxidase conjugated, anti-mouse, rabbit polyclonal serum (Dako #P0260), diluted 1/1000, were added to all wells. The plates were incubated for a further hour, the antibody removed and the cell sheets washed 5 times with PBS/Tween and blotted dry. The assay was developed by the addition of 50 μL of ortho-phenylenediamine/peroxidase substrate in urea/citrate buffer (SigmaFast, Sigma #P-9187) to each well, and colour allowed to develop for up to 15 minutes. The reaction was stopped by the addition of 25 μL per well of 2 M sulphuric acid and the plates were read at 490 nm on a Fluostar Optima spectrophotometer.
(§4) The substrate solution was removed and the plates were washed in tap water, blotted dry and the cells stained with 5% carbol fuchsin in water for 30 minutes. The stain was discarded and the cell sheets washed, dried and examined microscopically to assess cytotoxicity.
(§5) The absorbance values from all compound-free wells that had received both primary and secondary antibodies were averaged to obtain a positive control value. The mean absorbance value from the compound-free wells that had not received the primary antibody was used to provide the negative (background) control value. The readings from the duplicate wells at each compound concentration were averaged and, after the subtraction of the mean background from all values, were expressed as a percentage of the positive control signal. The quantifiable and specific reduction of expressed protein detected by the ELISA in the presence of a drug can be used as a measure of replicon inhibition. GraFit software (Erithacus Software Ltd.) was used to plot the curve of percentage inhibition against compound concentration and derive the 50% inhibitory concentration (IC50) for the compound.
A general note: In antiviral work, replicon cells carry a viral genome segment that copies itself.

The subject of assay [2] is Huh-7 HCV replicon cells (genotype 1a). The experiment in a line: Replicon ELISA cell based assay, genotype 1a. Also on record: species or system HCV genotype 1a. The following applies: Hepatitis C virus, Huh-7 genotype 1a replicon, 72 hours. As for the experimental part:
as §1, §2, §3, §4, §5

The term IC50 denotes the midpoint of a concentration-inhibition curve. A high value points to lower potency. `COC[C@H]1C[C@@](Cc2cscn2)(C(=O)O)N(C(=O)c2ccc(C(C)(C)C)c(OC)c2)[C@H]1c1ncc(C)s1` (single isomer, unassigned; enantiomer a) [Example 2]: the IC50 in assay [1] was below 0.15 µM; in assay [2], below 10 µM.

In the case of `COC[C@H]1C[C@@](Cc2cscn2)(C(=O)O)N(C(=O)c2ccc(C(C)(C)C)c(OC)c2)[C@H]1c1ncc(C)s1` (racemic) [Example 1, rel-(2R,4S,5R)-1-(3-Methoxy-4-tert-butylbenzoyl)-4-(methoxymethyl)-5-(5-methyl-1,3-thiazol-2-yl)-2-(1,3-thiazol-4-ylmethyl)pyrrolidine-2-carboxylic acid], the IC50 in assay [1] is below 0.15 µM; in assay [2], below 10 µM.

For the compound `COC[C@H]1C[C@@](CC(C)C)(C(=O)O)N(C(=O)c2ccc(C(C)(C)C)c(OC)c2)[C@H]1c1ncc(C)s1` (racemic) [Compound C, rel-(2S,4S,5R)-2-isobutyl-1-(3-methoxy-4-tert-butylbenzoyl)-4-methoxymethyl-5-(5-methyl-1,3-thiazol-2-yl)pyrrolidine-2-carboxylic acid, reference compound], the half-maximal inhibitory concentration (IC50) in assay [2] lay in the range of 10 to 100 µM.

As for `COC[C@H]1C[C@@](Cn2cccn2)(C(=O)O)N(C(=O)c2ccc(C(C)(C)C)c(OC)c2)[C@H]1c1ncc(C)s1` (single isomer, unassigned; enantiomer a) [Example 11], the IC50 was below 0.15 µM in assay [1] and below 10 µM in assay [2].

In the case of `COC[C@H]1C[C@@](Cn2cccn2)(C(=O)O)N(C(=O)c2ccc(C(C)(C)C)c(OC)c2)[C@H]1c1ncc(C)s1` (racemic) [Example 10, rel-(2R,4S,5R)-1-(3-Methoxy-4-tert-butylbenzoyl)-4-(methoxymethyl)-5-(5-methyl-1,3-thiazol-2-yl)-2-(1H-pyrazol-1-ylmethyl)pyrrolidine-2-carboxylic acid], the IC50 in assay [1] was below 0.15 µM; in assay [2], below 10 µM.

Take `COC[C@H]1C[C@@](Cc2ccsn2)(C(=O)O)N(C(=O)c2ccc(C(C)(C)C)c(OC)c2)[C@H]1c1ncc(C)s1` (racemic) [Example 9, rel-(2R,4S,5R)-1-(3-Methoxy-4-tert-butylbenzoyl)-4-(methoxymethyl)-5-(5-methyl-1,3-thiazol-2-yl)-2-(1,2-thiazol-3-ylmethyl)pyrrolidine-2-carboxylic acid]: the concentration for half-maximal inhibition (IC50) in assay [1] was below 0.15 µM; in assay [2] it was below 10 µM.

For `COC[C@H]1C[C@@](Cc2nccs2)(C(=O)O)N(C(=O)c2ccc(C(C)(C)C)c(OC)c2)[C@H]1c1ncc(C)s1` (racemic) [Example 8, rel-(2R,4S,5R)-1-(3-Methoxy-4-tert-butylbenzoyl)-4-(methoxymethyl)-5-(5-methyl-1,3-thiazol-2-yl)-2-(1,3-thiazol-2-ylmethyl)pyrrolidine-2-carboxylic acid], the IC50 in assay [1] is 0.15 to 10 µM; in assay [2] it was below 10 µM.

In the case of `COC[C@H]1C[C@@](CC(C)C)(C(=O)O)N(C(=O)c2ccc(C(C)(C)C)c(OC)c2)[C@H]1c1nccs1` (racemic) [Compound A, rel-(2S,4S,5R)-2-isobutyl-1-(3-methoxy-4-tert-butylbenzoyl)-4-methoxymethyl-5-(1,3-thiazol-2-yl)pyrrolidine-2-carboxylic acid, reference compound], the IC50 in assay [1] lay in the range of 0.15 to 10 µM; in assay [2] it was 10 to 100 µM.

Consider `COC[C@H]1C[C@@](Cn2cccn2)(C(=O)O)N(C(=O)c2ccc(C(C)(C)C)c(OC)c2)[C@H]1c1nccs1` (single isomer, unassigned) [Example 7], for which the IC50 in assay [1] is below 0.15 µM; in assay [2], below 10 µM.

In the case of `COC[C@H]1C[C@@](Cc2cscn2)(C(=O)O)N(C(=O)c2ccc(C(C)(C)C)c(OC)c2)[C@H]1c1nccs1` (single isomer, unassigned; enantiomer a) [Example 12], the values for the IC50 in assay [1] and in assay [2] were below 0.15 µM and below 10 µM, respectively.

In the case of `COCC1CC(CC(C)C)(C(=O)O)N(C(=O)c2ccc(C(C)(C)C)c(OC)c2)C1c1ncc(C)s1` (single isomer, unassigned; enantiomer a) [Compound D, reference compound], the values for the IC50 in assay [1] and in assay [2] were 0.15 to 10 µM and 10 to 100 µM, respectively.

As to `COC[C@H]1C[C@@](Cn2cccn2)(C(=O)O)N(C(=O)c2ccc(C(C)(C)C)c(OC)c2)[C@H]1c1nccs1` (racemic) [Example 6, rel-(2R,4S,5R)-1-(3-Methoxy-4-tert-butylbenzoyl)-4-(methoxymethyl)-2-(1H-pyrazol-1-ylmethyl)-5-(1,3-thiazol-2-yl)pyrrolidine-2-carboxylic acid], the half-inhibitory concentration (IC50) in assay [1] is below 0.15 µM; in assay [2], below 10 µM.

Take `COC[C@H]1C[C@@](CC(C)C)(C(=O)O)N(C(=O)c2ccc(C(C)(C)C)c(OC)c2)[C@H]1c1nccs1` [Compound B, (2S,4S,5R)-2-isobutyl-1-(3-methoxy-4-tert-butylbenzoyl)-4-methoxymethyl-5-(1,3-thiazol-2-yl)pyrrolidine-2-carboxylic acid, reference compound]: the IC50 in assay [1] was in the range of 0.15 to 10 µM; in assay [2] it was 10 to 100 µM.

For `COC[C@H]1C[C@@](Cc2ccsn2)(C(=O)O)N(C(=O)c2ccc(C(C)(C)C)c(OC)c2)[C@H]1c1nccs1` (single isomer, unassigned; enantiomer a) [Example 5], the IC50 in assay [1] is below 0.15 µM; in assay [2], below 10 µM.

Turning to `COC[C@H]1C[C@@](Cc2cscn2)(C(=O)O)N(C(=O)c2ccc(C(C)(C)C)c(OC)c2)[C@H]1c1nccs1` (racemic) [Example 3, rel-(2R,4S,5R)-1-(3-Methoxy-4-tert-butylbenzoyl)-4-(methoxymethyl)-5-(1,3-thiazol-2-yl)-2-(1,3-thiazol-4-ylmethyl)pyrrolidine-2-carboxylic acid], the results for the IC50 in assay [1] and in assay [2] were below 0.15 µM and below 10 µM, respectively.

For the compound `COC[C@H]1C[C@@](Cc2ccccc2)(C(=O)O)N(C(=O)c2ccc(C(C)(C)C)c(OC)c2)[C@H]1c1nccs1` (racemic) [Compound E, rel-(2R,4S,5R)-2-benzyl-1-(3-methoxy-4-tert-butylbenzoyl)-4-methoxymethyl-5-(1,3-thiazol-2-yl)-pyrrolidine-2-carboxylic acid, reference compound], the IC50 in assay [1] was 0.15 to 10 µM; in assay [2], above 100 µM.

As to `COC[C@H]1C[C@@](Cc2ccsn2)(C(=O)O)N(C(=O)c2ccc(C(C)(C)C)c(OC)c2)[C@H]1c1nccs1` (racemic) [Example 4, rel-(2R,4S,5R)-1-(3-Methoxy-4-tert-butylbenzoyl)-4-(methoxymethyl)-5-(1,3-thiazol-2-yl)-2-(1,2-thiazol-3-ylmethyl)pyrrolidine-2-carboxylic acid], the results for the IC50 in assay [1] and in assay [2] were below 0.15 µM and below 10 µM, respectively.
